The target of the test is T1, human full-length MKNK1 (Homo sapiens, UniProt Q9BUB5, T385D).
T1 construct: purchased Carna Biosciences 02-145; host or cells: insect cells, baculovirus expression system
T1 sequence (Q9BUB5 1-424 isoform Q9BUB5-2 T344D): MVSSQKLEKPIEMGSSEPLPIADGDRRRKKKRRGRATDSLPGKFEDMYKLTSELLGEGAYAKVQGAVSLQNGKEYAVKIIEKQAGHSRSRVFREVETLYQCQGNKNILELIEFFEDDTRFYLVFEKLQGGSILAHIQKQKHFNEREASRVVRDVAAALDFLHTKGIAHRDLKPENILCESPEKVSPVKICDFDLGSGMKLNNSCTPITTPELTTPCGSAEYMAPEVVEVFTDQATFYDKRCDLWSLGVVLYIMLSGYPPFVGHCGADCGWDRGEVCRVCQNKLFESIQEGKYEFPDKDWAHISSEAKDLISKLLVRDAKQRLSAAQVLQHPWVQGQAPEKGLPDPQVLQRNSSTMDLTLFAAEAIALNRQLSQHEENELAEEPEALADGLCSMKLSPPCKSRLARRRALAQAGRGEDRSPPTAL
Kind of test: MKNK1 kinase high ATP assay (TR-FRET). The format is biochemical. The note with it: high ATP (2 mM), 15 min preincubation with enzyme, GST-MKNK1 (T344D). The essentials: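 GST-tagged full-length human MKNK1 (aa 1-424, T344D), baculovirus-expressed, preincubated 15 min with compound, then reacted 30 min at 22 °C with 2 mM ATP and 0.06 µM biotinylated peptide (final).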
A general note: Time-resolved FRET reads energy transfer from a long-lived donor to a nearby acceptor.
The compound `COc1ccc(F)cc1Nc1ncnc2[nH]c3c(c12)CC(C(=O)NC1CC1)CC3` (racemic) [Example 197, (RS)—N-Cyclopropyl-4-[(5-fluoro-2-methoxyphenyl)amino]-6,7,8,9-tetrahydro-5H-pyrimido[4,5-b]indole-6-carboxamide] yielded an IC50 of 188 nM.

On to `COc1ccc(F)cc1Nc1ncnc2[nH]c3c(c12)CC(C(=O)NCCC(F)(F)F)CC3` (racemic) [Example 198, (RS)-4-[(5-Fluoro-2-methoxyphenyl)amino]-N-(3,3,3-trifluoropropyl)-6,7,8,9-tetrahydro-5H-pyrimido[4,5-b]indole-6-carboxamide], for which the IC50 came out at 249 nM.

`COc1ccc(F)cc1Nc1ncnc2[nH]c3c(c12)CC(C(=O)Nc1ccccc1)CC3` (racemic) [Example 199, (RS)-4-[(5-Fluoro-2-methoxyphenyl)amino]-N-phenyl-6,7,8,9-tetrahydro-5H-pyrimido[4,5-b]indole-6-carboxamide]: the concentration for half-maximal inhibition (IC50) was at least 20000 nM.

`COc1ccc(F)cc1Nc1ncnc2[nH]c3c(c12)CC(C(=O)NCc1ccccc1)CC3` (racemic) [Example 200, (RS)—N-Benzyl-4-[(5-fluoro-2-methoxyphenyl)amino]-6,7,8,9-tetrahydro-5H-pyrimido[4,5-b]indole-6-carboxamide] gave an IC50 of 100 nM.

For `CCNC(=O)C1CCc2[nH]c3ncnc(Nc4ccccc4N4CCOCC4)c3c2C1` (racemic) [Example 201, (RS)—N-Ethyl-4-{[2-(morpholin-4-yl)phenyl]amino}-6,7,8,9-tetrahydro-5H-pyrimido[4,5-b]indole-6-carboxamide], the concentration for half-maximal inhibition (IC50) was determined as 215 nM.

In the case of `CC(C)NC(=O)C1CCc2[nH]c3ncnc(Nc4ccccc4N4CCOCC4)c3c2C1` (racemic) [Example 202, (RS)-4-{[2-(Morpholin-4-yl)phenyl]amino}-N-(propan-2-yl)-6,7,8,9-tetrahydro-5H-pyrimido[4,5-b]indole-6-carboxamide], the IC50 was found to be 267 nM.

As to `O=C(NC1CC1)C1CCc2[nH]c3ncnc(Nc4ccccc4N4CCOCC4)c3c2C1` (racemic) [Example 203, (RS)—N-Cyclopropyl-4-{[2-(morpholin-4-yl)phenyl]amino}-6,7,8,9-tetrahydro-5H-pyrimido[4,5-b]indole-6-carboxamide], the IC50 is 175 nM.

In turn, `O=C(Nc1ccccc1)C1CCc2[nH]c3ncnc(Nc4ccccc4N4CCOCC4)c3c2C1` (racemic) [Example 205, (RS)-4-{[2-(Morpholin-4-yl)phenyl]amino}-N-phenyl-6,7,8,9-tetrahydro-5H-pyrimido[4,5-b]indole-6-carboxamide] returned an IC50 of 242 nM.

Regarding `O=C(NCc1ccccc1)C1CCc2[nH]c3ncnc(Nc4ccccc4N4CCOCC4)c3c2C1` (racemic) [Example 206, (RS)—N-Benzyl-4-{[2-(morpholin-4-yl)phenyl]amino}-6,7,8,9-tetrahydro-5H-pyrimido[4,5-b]indole-6-carboxamide], half-maximal inhibition (IC50) required 77 nM.

`CCNC(=O)C1CCc2[nH]c3ncnc(N4CCc5ccccc54)c3c2C1` (racemic) [Example 207, (RS)-4-(2,3-Dihydro-1H-indol-1-yl)-N-ethyl-6,7,8,9-tetrahydro-5H-pyrimido[4,5-b]indole-6-carboxamide] came in with an IC50 of 3140 nM.

Compound `CC(C)NC(=O)C1CCc2[nH]c3ncnc(N4CCc5ccccc54)c3c2C1` (racemic) [Example 208, (RS)-4-(2,3-Dihydro-1H-indol-1-yl)-N-(propan-2-yl)-6,7,8,9-tetrahydro-5H-pyrimido[4,5-b]indole-6-carboxamide] gave an IC50 of 2750 nM.

`O=C(NCc1ccccc1)C1CCc2[nH]c3ncnc(N4CCc5ccccc54)c3c2C1` (racemic) [Example 209, (RS)—N-Benzyl-4-(2,3-dihydro-1H-indol-1-yl)-6,7,8,9-tetrahydro-5H-pyrimido[4,5-b]indole-6-carboxamide]: the half-maximal inhibitory concentration (IC50) turned out to be 450 nM.

In turn, `O=C(NCc1cccc(C(F)(F)F)c1)C1CCc2[nH]c3ncnc(N4CCc5ccccc54)c3c2C1` (racemic) [Example 210, (RS)-4-(2,3-Dihydro-1H-indol-1-yl)-N-[3-(trifluoromethyl)benzyl]-6,7,8,9-tetrahydro-5H-pyrimido[4,5-b]indole-6-carboxamide] registered a concentration for half-maximal inhibition (IC50) of at least 20000 nM.

In the case of `CN1CCN(C(=O)C2CCc3[nH]c4ncnc(N5CCc6ccccc65)c4c3C2)CC1` (racemic) [Example 211, (RS)-[4-(2,3-Dihydro-1H-indol-1-yl)-6,7,8,9-tetrahydro-5H-pyrimido[4,5-b]indol-6-yl](4-methylpiperazin-1-yl)methanone], half-maximal inhibition (IC50) was put at 3410 nM.

Regarding `CNC(=O)C1CCc2[nH]c3ncnc(N4CCc5ccccc54)c3c2C1` (racemic) [Example 212, (RS)-4-(2,3-Dihydro-1H-indol-1-yl)-N-methyl-6,7,8,9-tetrahydro-5H-pyrimido[4,5-b]indole-6-carboxamide], the half-maximal inhibitory concentration (IC50) worked out at 910 nM.

Turning to `COc1ccc(C(F)(F)F)cc1Nc1ncnc2[nH]c3c(c12)CC(C(=O)NC(C)C)CC3` (racemic) [Example 213, (RS)-4-{[2-Methoxy-5-(trifluoromethyl)phenyl]amino}-N-(propan-2-yl)-6,7,8,9-tetrahydro-5H-pyrimido[4,5-b]indole-6-carboxamide], the IC50 came out at 103 nM.

As to `COc1ccc(C(F)(F)F)cc1Nc1ncnc2[nH]c3c(c12)CC(C(=O)Nc1ccccc1)CC3` (racemic) [Example 214, (RS)-4-{[2-Methoxy-5-(trifluoromethyl)phenyl]amino}-N-phenyl-6,7,8,9-tetrahydro-5H-pyrimido[4,5-b]indole-6-carboxamide], inhibition was half-maximal at 3400 nM (IC50).

In turn, `COc1ccc(C(F)(F)F)cc1Nc1ncnc2[nH]c3c(c12)CC(C(=O)N1CCN(C)CC1)CC3` (racemic) [Example 215, (RS)-(4-{[2-Methoxy-5-(trifluoromethyl)phenyl]amino}-6,7,8,9-tetrahydro-5H-pyrimido[4,5-b]indol-6-yl)(4-methylpiperazin-1-yl)methanone] showed an IC50 of 93 nM.

As for `COc1cc2[nH]ncc2cc1Nc1ncnc2[nH]c3c(c12)CC(C(=O)NC(C)C)CC3` (racemic) [Example 216, (RS)-4-[(6-Methoxy-1H-indazol-5-yl)amino]-N-(propan-2-yl)-6,7,8,9-tetrahydro-5H-pyrimido[4,5-b]indole-6-carboxamide], 5 nM corresponded to half-maximal inhibition (IC50).

Take `CNC(=O)C1CCc2[nH]c3ncnc(Nc4cc5cn[nH]c5cc4OC)c3c2C1` (racemic) [Example 217, (RS)-4-[(6-Methoxy-1H-indazol-5-yl)amino]-N-methyl-6,7,8,9-tetrahydro-5H-pyrimido[4,5-b]indole-6-carboxamide]: the IC50 was found to be 10 nM.

Compound `CCNC(=O)C1CCc2[nH]c3ncnc(Nc4cc5cn[nH]c5cc4OC)c3c2C1` (racemic) [Example 218, (RS)—N-Ethyl-4-[(6-methoxy-1H-indazol-5-yl)amino]-6,7,8,9-tetrahydro-5H-pyrimido[4,5-b]indole-6-carboxamide] gave an IC50 of 6 nM.

Compound `COc1cc2[nH]ncc2cc1Nc1ncnc2[nH]c3c(c12)CC(C(=O)NCc1ccccc1)CC3` (racemic) [Example 219, (RS)—N-Benzyl-4-[(6-methoxy-1H-indazol-5-yl)amino]-6,7,8,9-tetrahydro-5H-pyrimido[4,5-b]indole-6-carboxamide] displayed a half-maximal inhibitory concentration (IC50) of 1 nM.

As a reminder, the IC50 is the concentration needed to halve the response being measured. A higher IC50 goes with lower potency.

The values above are taken from patent US20150133426A1, “SUBSTITUTED PYRROLOPYRIMIDINES” (BAYER PHARMA AKTIENGESELLSCHAFT, priority 2012, published 2015).
